Results on two compounds are retold here after article PMC9318275, “A Novel ALDH1A1 Inhibitor Blocks Platinum-Induced Senescence and Stemness in Ovarian Cancer” (Cancers, 2022).

Assay [1] has as its target T1, ALDH1A1 (Homo sapiens, UniProt P00352).
T1 sequence (P00352 2-501): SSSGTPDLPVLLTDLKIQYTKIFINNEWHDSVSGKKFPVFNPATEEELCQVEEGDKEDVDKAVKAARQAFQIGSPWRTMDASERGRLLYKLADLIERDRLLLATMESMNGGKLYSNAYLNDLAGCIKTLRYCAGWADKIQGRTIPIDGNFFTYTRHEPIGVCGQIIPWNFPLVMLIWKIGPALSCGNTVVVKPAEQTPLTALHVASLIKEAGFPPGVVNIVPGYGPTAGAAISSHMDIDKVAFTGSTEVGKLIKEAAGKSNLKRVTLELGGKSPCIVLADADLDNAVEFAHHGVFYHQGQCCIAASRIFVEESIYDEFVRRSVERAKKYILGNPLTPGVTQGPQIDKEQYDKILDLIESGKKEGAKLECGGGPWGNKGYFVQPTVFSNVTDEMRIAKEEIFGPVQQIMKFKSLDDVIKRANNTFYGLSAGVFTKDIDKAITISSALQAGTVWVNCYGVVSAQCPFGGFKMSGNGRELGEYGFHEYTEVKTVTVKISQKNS
Put plainly: X-ray crystal structure at […] Å (complex with NAD and CM38). The class given is binding.

The target of another assay is T2, ALDH1A3 (Homo sapiens, UniProt P47895).
T2 sequence (P47895 1-512): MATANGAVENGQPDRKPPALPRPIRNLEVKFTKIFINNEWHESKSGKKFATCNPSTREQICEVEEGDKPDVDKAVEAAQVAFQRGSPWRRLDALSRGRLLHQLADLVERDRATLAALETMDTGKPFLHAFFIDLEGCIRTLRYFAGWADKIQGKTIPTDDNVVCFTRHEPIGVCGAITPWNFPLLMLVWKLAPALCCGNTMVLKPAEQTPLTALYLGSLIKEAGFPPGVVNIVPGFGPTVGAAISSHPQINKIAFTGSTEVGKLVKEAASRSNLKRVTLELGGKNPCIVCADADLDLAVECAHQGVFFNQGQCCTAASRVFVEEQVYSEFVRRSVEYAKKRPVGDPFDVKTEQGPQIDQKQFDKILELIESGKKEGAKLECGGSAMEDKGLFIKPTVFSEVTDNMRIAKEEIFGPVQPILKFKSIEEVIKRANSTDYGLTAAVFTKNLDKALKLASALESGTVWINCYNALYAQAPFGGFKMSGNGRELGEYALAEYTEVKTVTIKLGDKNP
Put plainly: biochemical. Set-up: NAD(P)H formation at 340 nm, purified recombinant ALDH1A enzyme, propionaldehyde and NAD+. The note with it: read-out: ALDH1A3 % activity versus control at 20 uM. How it is done:
(§1) Human ALDH1A1, ALDH1A2, and ALDH1A3 were prepared and purified as previously described. The inhibition of ALDH activity by compounds and the IC50 curves were determined by measuring the formation of NAD(P)H spectrophotometrically at 340 nm (molar extinction coefficient of 6200 M^−1 cm^−1) on a Beckman DU-640 as well as a Spectramax 340 PC spectrophotometer (GMI, Ramsey, NJ, USA) using a purified recombinant enzyme. The reaction components for assays with ALDH1A enzymes consisted of 100–200 nM enzyme, 200 µM NAD+, 100 µM propionaldehyde, and 1% DMSO in 25 mM BES buffer at pH 7.5. All assays were performed at 25 °C and were initiated by the addition of substrate after a 2 min incubation period. The purification of and the reaction conditions for the other ALDH isoenzymes were as described in [27]. […] The data were fit to the four-parameter EC50 equation using SigmaPlot (v14), and the values represent the means/SEM of three independent experiments (n = 3). Figure S1. X-Ray Crystallography of CM38 with ALDH1A1 and characterization of inhibitor activ-ity (A). Structure of Human ALDH1A1 with bound compound CM38. […] (B). Inhibition of ALDH activity by compounds and IC50 curves were determined by measuring the formation of NAD(P)H spectro-photometrically at 340 nm using purified recombinant enzymes. (C). […]

Another assay deals with T3, ALDH1A2 (Homo sapiens, UniProt O94788).
T3 sequence (O94788 1-518): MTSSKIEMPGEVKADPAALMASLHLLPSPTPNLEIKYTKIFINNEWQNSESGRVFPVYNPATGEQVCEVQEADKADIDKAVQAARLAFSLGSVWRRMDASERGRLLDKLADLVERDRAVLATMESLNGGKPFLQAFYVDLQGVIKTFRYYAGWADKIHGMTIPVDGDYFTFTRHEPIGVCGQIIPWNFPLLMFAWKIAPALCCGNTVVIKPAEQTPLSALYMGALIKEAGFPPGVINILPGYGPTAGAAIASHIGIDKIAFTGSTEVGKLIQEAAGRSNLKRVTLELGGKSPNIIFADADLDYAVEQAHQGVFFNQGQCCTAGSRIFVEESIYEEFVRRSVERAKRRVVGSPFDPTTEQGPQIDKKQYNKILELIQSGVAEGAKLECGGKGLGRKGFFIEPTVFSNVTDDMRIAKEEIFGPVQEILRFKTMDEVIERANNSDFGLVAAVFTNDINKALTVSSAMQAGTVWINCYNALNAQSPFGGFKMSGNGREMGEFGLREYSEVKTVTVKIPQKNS
Description: biochemical. The settings on record: read-out: ALDH1A2 % activity versus control at 20 uM. The arrangement: NAD(P)H formation at 340 nm, purified recombinant ALDH1A enzyme, propionaldehyde and NAD+. How it is done: as §1

For another assay, the target named is T4, ALDH1B1 (Homo sapiens, UniProt P30837).
T4 sequence (P30837 1-517): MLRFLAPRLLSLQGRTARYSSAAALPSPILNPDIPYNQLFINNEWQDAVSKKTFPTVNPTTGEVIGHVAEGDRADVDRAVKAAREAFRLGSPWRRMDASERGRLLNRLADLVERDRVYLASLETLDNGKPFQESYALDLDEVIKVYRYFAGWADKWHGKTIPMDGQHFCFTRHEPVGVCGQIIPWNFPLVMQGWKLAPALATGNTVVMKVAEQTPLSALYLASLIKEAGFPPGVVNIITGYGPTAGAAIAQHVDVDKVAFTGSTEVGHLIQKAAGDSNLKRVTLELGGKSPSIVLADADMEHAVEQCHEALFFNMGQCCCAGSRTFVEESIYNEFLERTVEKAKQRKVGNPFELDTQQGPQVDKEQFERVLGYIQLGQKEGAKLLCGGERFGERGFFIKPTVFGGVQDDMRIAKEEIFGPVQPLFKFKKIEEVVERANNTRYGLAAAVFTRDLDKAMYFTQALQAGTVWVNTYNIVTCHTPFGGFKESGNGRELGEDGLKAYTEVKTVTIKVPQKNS
Put plainly: biochemical. The arrangement: NAD(P)H formation at 340 nm, purified recombinant ALDH isoenzymes. The settings on record: read-out: ALDH1B1 % activity versus control at 20 uM. As for the experimental part:
as §1

For another assay, the target named is T5, ALDH2 (Homo sapiens, UniProt P05091).
T5 sequence (P05091 1-517): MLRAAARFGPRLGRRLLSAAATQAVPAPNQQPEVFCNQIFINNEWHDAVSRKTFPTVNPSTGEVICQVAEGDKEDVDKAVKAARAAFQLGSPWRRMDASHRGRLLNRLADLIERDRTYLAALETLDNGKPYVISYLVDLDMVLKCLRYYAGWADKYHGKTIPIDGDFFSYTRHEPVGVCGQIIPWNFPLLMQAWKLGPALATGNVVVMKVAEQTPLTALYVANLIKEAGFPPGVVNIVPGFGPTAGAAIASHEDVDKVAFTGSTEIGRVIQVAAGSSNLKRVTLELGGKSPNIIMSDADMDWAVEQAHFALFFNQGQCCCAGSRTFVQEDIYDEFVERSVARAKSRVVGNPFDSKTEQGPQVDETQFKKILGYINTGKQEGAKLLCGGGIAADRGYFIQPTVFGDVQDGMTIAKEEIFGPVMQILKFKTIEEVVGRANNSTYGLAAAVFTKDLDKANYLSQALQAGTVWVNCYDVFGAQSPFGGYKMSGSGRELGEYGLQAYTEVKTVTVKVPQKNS
Description: biochemical. The arrangement: NAD(P)H formation at 340 nm, purified recombinant ALDH isoenzymes. The settings on record: read-out: ALDH2 % activity versus control at 20 uM. How it is done:
as §1

Assay [2] concerns the target T1, ALDH1A1. Description: purified recombinant enzyme, NAD(P)H formation at […] nm with propionaldehyde as substrate. The class given is biochemical.

Consider `NC(=O)c1ccc[n+]([C@@H]2O[C@H](COP(=O)([O-])OP(=O)(O)OC[C@H]3O[C@@H](n4cnc5c(N)ncnc54)[C@H](O)[C@@H]3O)[C@@H](O)[C@H]2O)c1` [NAD], for which the “X-ray crystal structure at 1.8 Å (complex with NAD and CM38)” value on ALDH1A1 [1] is “we determined the structure of ALDH1A1 in a complex with both NAD and CM38 by X-ray crystallography”.

By IC50 is commonly meant the concentration that inhibits the measured activity by half. Regarding `Cc1c(C(=O)N2CCCCC2)oc2ccc3c(c12)C(=O)CC1(CCCCCC1)O3` [compound 974], the remaining activity at 20 µM at ALDH1A3 was found to be 85 ± 4%; at ALDH1A2 it was 63 ± 4.2%; on ALDH1B1 it was 67 ± 3.9%; at ALDH2, 76 ± 20%. The IC50 on ALDH1A1 [2] is 470 nM.
